Source: patent US7709443B2, “Cyclic peptide antitumor agents” (Northwestern University, priority 2003, dated 2010)
≈ marks a conversion by molar mass, not a printed value. Where two headings read alike, the source gives them in different places. Square brackets hold non-standard residues; d marks the D form. Peptide text beside a SMILES is read from it. NMePhe(4-Br) = CN[C@@H](Cc1ccc(Br)cc1)C(=O)O; Phe(4-Br) = N[C@@H](Cc1ccc(Br)cc1)C(=O)O; Hica(2S) = CC(C)C[C@H](O)C(=O)O; NMeL = CN[C@@H](CC(C)C)C(=O)O

Assays:
AsPC-1 cells [1] = assay: Cell proliferation assay (Guava ViaCount cell number), AsPC-1; format: cell-based, human; settings: AsPC-1, 10 μM, 72 hours, vs vehicle (DMSO)
Procedure: (§1) Given the results of the preceding example, several compounds of this invention were tested against human pancreatic cancer cell lines. Two cancer cell lines were selected: S2-013 (well-differentiated) and AsPC-1 (poorly differentiated). These cell lines were purchased from American Type Culture Collection (Manassas, Va.). Both cell lines were grown in DMEM and plated as monolayers in the medium supplemented with 10% fetal bovine serum in a humidified atmosphere of […] and 5% CO2 at 37° C. The cells were regularly seeded into 75 cm^2 flasks with media changes every second or third day. For experiments, cells were grown to 70% confluence, digested with trypsin-EDTA, and plated in either 6-, 24-, or 48-well plates.
(§2) Cell Proliferation Assay. Cells were regularly seeded into three 6-well plates and incubated at 37° C. for 24 hours. Cells were then cultured in serum-free medium for another 24 hours and treated in fresh serum-free medium with or without 10 μM of cyclic peptide 1k for 24, 48, and 72 hours. At the end of each time period, the cells were trypsinized to produce a single cell suspension, and the cell number in each well was determined using Guava Technologies=ViaCount Assay (Guava Technologies Inc, Hayward, Calif.).
(§3) Statistical Analysis. Data were analyzed by ANOVA with Dunnett's or Bonferoni's corrections for multiple comparisons, as appropriate. This analysis was performed with the Prism software package (GraphPad, San Diego, Calif.). Data were expressed as mean±SEM.

[2] = tested on: AsPC-1 human pancreatic cancer cells; assay: Cell cycle analysis by flow cytometry, AsPC-1; format: cell-based; settings: AsPC-1, 10 μM, 24 hours
Procedure: (§4) Cell Cycle Analysis by Flow Cytometry. AsPC-1 and S2013 human pancreatic cancer cells were cultured in T75 flasks with media containing 10% FBS. After reaching 50-60% confluence, the cells were serum-starved for 24 hours, and then treated with 10 μM of cyclic peptide 1k for 24 hours. At the end of the treatment, the cells were harvested with trypsin-EDTA solution to produce single cell suspension. The cells were then centrifuged at 1000×g for 10 minutes. The pellets were washed twice with ice-cold phosphate buffer saline (PBS), and re-suspended in 0.5 ml PBS. 5 ml of ice-cold 70% ethanol was added to each cell suspension and incubated for 12 hours at 4° C. The cells fixed in ethanol were centrifuged at 1000×g for 10 minutes and the subsequent pellets were washed with ice-cold PBS twice. The final cell pellets were reconstituted in the 1 ml Telford reagent and horizontally shaken for 1 hour in the dark at room temperature. The red fluorescence of the single events was recorded using a laser beam at 488 nm excitation 8 and 610 nm as emission 8 to measure the DNA index. Experiments were repeated three times.

[3] = tested on: MDA-MB231 (Breast) human cancer cell line; settings: three days
Procedure: (§5) Cells were plated at 5,000 cells per well in 24-well plates, treated for three days, then counted. Cell number was normalized to the number of cells in untreated control (DMSO) cells, also after three days.

[4] = tested on: AsPC-1 human pancreatic cancer cells; assay: DNA synthesis by [methyl-3H] thymidine incorporation, AsPC-1; format: cell-based; settings: AsPC-1, 24 hours, FIG. 6
Procedure: as §1
DNA Synthesis by [methyl-^3H] Thymidine Incorporation. Cells were plated in 24-well plates at a concentration of 50,000 cells/well. […] Radioactivity, indicating incorporation of ^3H-methyl thymidine into DNA, was measured by adding scintillation cocktail and counting on a scintillation counter (LKB RackBeta; Wallac, Turku, Finland).
Statistical Analysis. Data were analyzed by ANOVA with Dunnett's or Bonferoni's corrections for multiple comparisons, as appropriate. […] Data were expressed as mean±SEM.

S2-013 cell line = assay: Cell proliferation assay (Guava ViaCount cell number), S2-013; format: cell-based, human; settings: S2-013, 10 μM, 72 hours, vs vehicle (DMSO)
Procedure: as §1, §2, §3

AsPC-1 cells [5] = assay: Morphological changes using light microscopy, AsPC-1; format: cell-based, human; settings: AsPC-1, 24 hours, 0.1-100 μM tested
Procedure: as §1
Morphological Changes Using Light Microscopy. AsPC-1 and S2-013 cells plated in 24-well plates were treated with varying concentrations (0.1-100 μM) of cyclic peptide 1k for 24 hours. Cells were then viewed using light microscopy, and digital images were taken with a Kodak DC120 zoom digital camera (Eastman Kodak Co., Rochester, N.Y.).

[6] = tested on: S2013 human pancreatic cancer cells; assay: Cell cycle analysis by flow cytometry, S2013; format: cell-based; settings: S2013, 10 μM, 24 hours
Procedure: as §4

[7] = tested on: PC-3 (Prostate) human cancer cell line; settings: three days
Procedure: as §5

[8] = tested on: WM115 (Melanoma) human cancer cell line; settings: three days
Procedure: as §5

[9] = tested on: National Cancer Institute's 60 cell-line panel; settings: mean over panel; cited from earlier work
topoisomerase I = settings: mechanism study in molluscum contagiosum virus; cited from earlier work
[10] = tested on: HCT-116 (human colon carcinoma); assay: cells; settings: HCT-116 bioassay, Table 1
Text: The HCT-116 human colon adenocarcinoma screen is a tissue culture first line assay to detect inherent cytotoxicity against malignant cancer cells. This strain is considered to be an “indicator strain” by many for the selection of inhibitors that target solid tumors. The assay is a calorimetric endpoint assay which can be produced in 96-well format trays. Data are acquired by plate reader and dose response curves are produced by computer analysis. […] This assay is run routinely as described below and would be understood in the art.
1. Media (1000 mL McCoy's 5A Medium, 114 mL Fetal Bovine Serum, 25 mL Hepes buffer solution (IM), 12.5 mL Penicillin-Streptomycin solution)
2. Cell line (HCT-116, human colon cancer cell line)
3. Indicator (MTS and PMS in DPBS)
5. Standard anticancer drug (etoposide (VP-16); stock is 4 mg/mL in DMSO
6. DPBS (without CaCl2 and MgCl2)
1. Remove medium from the cells and rinse with 10 mL sterile DPBS.
3. Allow to stand in hood for 1 minute.
4. Remove trypsin with sterile pipette.
5. Allow flask to stand in hood for 2-5 minutes.
6. Add 10 mL of media to flask and pipette up and down to gently break up cell clumps.
7. Count the number of cells using a hemacytometer.
8. Determine # of plates needed, and total volume of cell suspension (16 or 18 mL per plate).
9. Dilute cells to a final concentration of 2.5×10^4 cells/mL in a sterile flask.
10. Pour cell suspension into a sterile trough.
For Serial Dilution Plates
1. Add 175 μL to each well in the first row of a 96 well plate.
2. Add 150 μL to the rest of the wells in A1-A10 & A12.
3. In row 11 add 150 μL cell suspension to the first 6 wells and only media to the last two.
For Single Concentration Plates
1. Add 150 μL of sterile media to G11 & H11.
2. Add 150 μL of cell suspension to all other wells.
3. Add 25 μL more to well H1.
Incubate plates overnight at 37° C. & 5% CO2
1. Add 25 μL of test compounds @ 10 mg/mL to A1-A10, 25 μL of DMSO to A11 & 25 μL of etoposide (4 mg/mL) to A12.
2. Using a twelve channel pipette, mix well then remove 50 μL from the first row and transfer to the next row, repeat down the plate until row F, then remove tip # 11 and continue down plate discarding the last 50 μL.
3. Incubate plates for 72 h.
1. Add 20 μL of MTS/PMS solution to each well.
3. Read plates @490 nm on plate reader.

[11] = tested on: HCT-116 (human colon carcinoma); settings: as found for the natural product; cited from earlier work
[12] = tested on: Caspase-3 activity in PC-3 cells; assay: Caspase-3 activity, fluorometric assay; format: cell-based, human; settings: relative to DMSO and staurosporin controls
Procedure: Caspase-3 is a mediator of apoptosis, and induction of Caspase-3 activity indicates induction of apoptosis. Activity of Caspase-3 was measured by a fluorometric assay, as described in the literature, referenced above.

PC-3 cells = assay: Annexin V binding, induction of apoptosis; format: cell-based, human; settings: after 72 hours
Text: The ability of the compounds in this invention to induce apoptosis was also studied, based on a methodology previously reported in the literature. (See, Soff et al. Cancer Res., 63:4275-4289, 2003.) As understood by those skilled in the art, the ability of Annexin V to bind two cells is related to altered phospholipids on a cell surface, induced by apoptosis. As such, increased Annexin V binding indicates induction of apoptosis.

CC(C)C[C@@H]1NC(=O)[C@H](CC(C)C)NC(=O)[C@H](Cc2ccc(Br)cc2)N(C)C(=O)[C@H](CC(C)C)NC(=O)[C@H](C(C)C)NC1=O [Compound 1k] (cyclo([NMePhe(4-Br)]LLVL))
change in number of cells (AsPC-1 cells [1]): significant (p<0.05) decrease
S phase fraction [2]: marked decrease
cell cycle effect [2]: G0/G1 phase cell cycle arrest
subG1 fraction of apoptotic cells [2]: increase
Fold Induction Over DMSO control ([3]; MDA-MB231, 1 μM): 3.17
Fold Induction Over DMSO control ([3]; MDA-MB231, 10 μM): 0.41
concentration-dependent effect on thymidine incorporation [4]: concentration-dependent inhibition
change in number of cells (S2-013 cell line): significant (p<0.05) decrease
compound concentration giving obvious morphological changes (AsPC-1 cells [5]): ≥ 10 μM
S phase fraction [6]: marked decrease
cell cycle effect [6]: G0/G1 phase cell cycle arrest
subG1 fraction of apoptotic cells [6]: increase
Fold Induction Over DMSO control ([7]; PC-3, 1 μM): 0.95
Fold Induction Over DMSO control ([7]; PC-3, 10 μM): 0.66
Fold Induction Over DMSO control ([8]; WM115, 1 μM): 1.05
Fold Induction Over DMSO control ([8]; WM115, 10 μM): 0.13

CC(C)C[C@@H]1NC(=O)[C@H](C(C)C)NC(=O)[C@H](CC(C)C)OC(=O)[C@H](CC(C)C)NC(=O)[C@H](Cc2ccccc2)NC1=O [Sansalvamide A, reference compound] (cyclo(FL[Hica(2S)]VL))
Fold Induction Over DMSO control ([3]; MDA-MB231, 1 μM): 0.90
Fold Induction Over DMSO control ([3]; MDA-MB231, 10 μM): 0.09
mean IC50 against NCI 60 cell-line panel [9]: 27.4 µg/mL
inhibition of topoisomerase I (topoisomerase I): inhibitor of topoisomerase I
IC50 [10]: 9.8 µg/mL (≈ 16.7 µM)
in vitro value toward HCT-116 colon carcinoma [11]: 9.8 µg/mL
Fold Induction Over DMSO control ([7]; PC-3, 1 μM): 0.95
Fold Induction Over DMSO control ([7]; PC-3, 10 μM): 0.22
Fold Induction Over DMSO control ([8]; WM115, 1 μM): 0.98
Fold Induction Over DMSO control ([8]; WM115, 10 μM): 0.02

CC(C)C[C@@H]1NC(=O)[C@H](Cc2ccc(Br)cc2)NC(=O)[C@H](CC(C)C)N(C)C(=O)[C@H](C(C)C)NC(=O)[C@H](CC(C)C)NC1=O [Compound 1i] (cyclo([Phe(4-Br)]LLV[NMeL]))
change in number of cells (AsPC-1 cells [1]): significant (p<0.05) decrease
Caspase-3 activity [12]: induced
Fold Induction Over DMSO control ([3]; MDA-MB231, 1 μM): 0.96
induction of apoptosis (Annexin V binding) (PC-3 cells): induction of apoptosis was observed
change in number of cells (S2-013 cell line): significant (p<0.05) decrease
Fold Induction Over DMSO control ([7]; PC-3, 1 μM): 0.85
Fold Induction Over DMSO control ([8]; WM115, 1 μM): 1.44
